Measurements: patent publication US8785429B2, “Dihydropyrrolonaphthyridinone compounds as inhibitors of JAK” (Takeda Pharmaceutical Company Limited, priority 2009, dated 2014)

Experiments:
[1] = molecular target: T1, JAK3 (Homo sapiens, UniProt P52333); assay: Assay for JAK3 Inhibition (phosphorylation of FAM-labeled substrate, Caliper LC-3000); type: biochemical; conditions: −log10(IC50), IC50 is the molar concentration at 50% inhibition; read-out: JAK3 pIC50 (converted)
T1 construct: purchased Invitrogen
T1 sequence (P52333 1-1124): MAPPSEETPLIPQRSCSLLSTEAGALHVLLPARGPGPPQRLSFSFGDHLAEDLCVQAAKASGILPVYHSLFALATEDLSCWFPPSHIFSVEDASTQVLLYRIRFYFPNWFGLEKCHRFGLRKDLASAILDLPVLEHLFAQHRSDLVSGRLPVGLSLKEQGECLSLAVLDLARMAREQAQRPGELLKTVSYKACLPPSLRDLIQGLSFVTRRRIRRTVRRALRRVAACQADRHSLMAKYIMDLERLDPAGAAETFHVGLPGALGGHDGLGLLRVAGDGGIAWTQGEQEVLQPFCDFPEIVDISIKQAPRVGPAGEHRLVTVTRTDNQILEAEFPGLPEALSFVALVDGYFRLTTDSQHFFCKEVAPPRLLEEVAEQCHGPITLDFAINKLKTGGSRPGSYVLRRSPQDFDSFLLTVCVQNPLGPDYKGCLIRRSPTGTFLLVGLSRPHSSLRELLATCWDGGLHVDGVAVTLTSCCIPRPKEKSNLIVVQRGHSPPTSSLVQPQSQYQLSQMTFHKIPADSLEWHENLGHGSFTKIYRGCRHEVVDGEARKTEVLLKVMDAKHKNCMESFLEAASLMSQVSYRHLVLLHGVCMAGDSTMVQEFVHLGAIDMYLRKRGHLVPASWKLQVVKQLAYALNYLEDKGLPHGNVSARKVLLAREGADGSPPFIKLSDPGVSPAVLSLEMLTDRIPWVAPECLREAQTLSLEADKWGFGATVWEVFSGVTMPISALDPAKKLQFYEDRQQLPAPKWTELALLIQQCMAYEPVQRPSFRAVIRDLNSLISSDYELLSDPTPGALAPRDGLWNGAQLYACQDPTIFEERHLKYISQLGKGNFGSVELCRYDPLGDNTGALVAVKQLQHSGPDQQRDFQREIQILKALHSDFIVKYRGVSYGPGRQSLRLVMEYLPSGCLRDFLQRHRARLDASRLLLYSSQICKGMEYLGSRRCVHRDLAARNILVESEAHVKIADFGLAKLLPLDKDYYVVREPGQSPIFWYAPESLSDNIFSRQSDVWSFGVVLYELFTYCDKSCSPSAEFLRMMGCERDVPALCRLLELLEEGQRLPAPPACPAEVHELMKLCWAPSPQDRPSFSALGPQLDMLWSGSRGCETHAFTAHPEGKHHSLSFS
Protocol: (§1) A compound's ability to inhibit JAK activity may be assessed using a variety of methods, including in vitro and in vivo assays. The following in vitro assays measure a test compound's ability to inhibit JAK2- and JAK3-mediated phosphorylation of FAM-labeled JAK-specific substrates.
(§2) Purified JAK2 and JAK3 proteins were purchased from Invitrogen. JAK2 and JAK3 inhibition is determined using a black 384-well-plate format in buffer containing 50 mM HEPES, 10 mM NaCl, 10 mM MgCl2, 0.2 mM EDTA, 0.01% EDA (Brij® 35), 1 mM DTT, 0.1 mg/mL BSA at pH 7.3. Each test compound is prepared in DMSO using 2-fold serial dilutions for 11 data points and is added to the buffer so that each dilution contains 3% DMSO.
(§3) To each well is added 2 μL of 3 μM 5FAM-KKKKEEIYFFFG-NH2 and 15 μM ATP (in buffer), 2 μL of diluted test compound (3% DMSO in medium), and 2 μL of 1.2 nM JAK3 in buffer. The reaction mixture is incubated at room temperature for 60 min and is quenched by adding 50 mM HEPES, 30 mM EDTA, and 0.1% Tx-100 (pH 7.3). To quantify the fluorescent-labeled substrate and product following reaction, the test plate is loaded on a Caliper LC-3000, which measures percent of conversion by microfluidic-based separation.
(§4) Corresponding IC50 values are calculated by non-linear curve fitting of the compound concentrations and percent of inhibition to the standard IC50 equation.

[2] = molecular target: T2, JAK2 (Homo sapiens, UniProt O60674); assay: Assay for JAK2 Inhibition (phosphorylation of FAM-labeled substrate, Caliper LC-3000); type: biochemical; conditions: −log10(IC50), IC50 is the molar concentration at 50% inhibition; read-out: JAK2 pIC50 (converted)
T2 construct: purchased Invitrogen
Protocol: as §1, §2
as §3, with “45” for “15”, “0.6” for “1.2”, “JAK2” for “JAK3”, “HEPeX,” for “HEPES,”
as §4

T2 sequence (O60674 whole entry): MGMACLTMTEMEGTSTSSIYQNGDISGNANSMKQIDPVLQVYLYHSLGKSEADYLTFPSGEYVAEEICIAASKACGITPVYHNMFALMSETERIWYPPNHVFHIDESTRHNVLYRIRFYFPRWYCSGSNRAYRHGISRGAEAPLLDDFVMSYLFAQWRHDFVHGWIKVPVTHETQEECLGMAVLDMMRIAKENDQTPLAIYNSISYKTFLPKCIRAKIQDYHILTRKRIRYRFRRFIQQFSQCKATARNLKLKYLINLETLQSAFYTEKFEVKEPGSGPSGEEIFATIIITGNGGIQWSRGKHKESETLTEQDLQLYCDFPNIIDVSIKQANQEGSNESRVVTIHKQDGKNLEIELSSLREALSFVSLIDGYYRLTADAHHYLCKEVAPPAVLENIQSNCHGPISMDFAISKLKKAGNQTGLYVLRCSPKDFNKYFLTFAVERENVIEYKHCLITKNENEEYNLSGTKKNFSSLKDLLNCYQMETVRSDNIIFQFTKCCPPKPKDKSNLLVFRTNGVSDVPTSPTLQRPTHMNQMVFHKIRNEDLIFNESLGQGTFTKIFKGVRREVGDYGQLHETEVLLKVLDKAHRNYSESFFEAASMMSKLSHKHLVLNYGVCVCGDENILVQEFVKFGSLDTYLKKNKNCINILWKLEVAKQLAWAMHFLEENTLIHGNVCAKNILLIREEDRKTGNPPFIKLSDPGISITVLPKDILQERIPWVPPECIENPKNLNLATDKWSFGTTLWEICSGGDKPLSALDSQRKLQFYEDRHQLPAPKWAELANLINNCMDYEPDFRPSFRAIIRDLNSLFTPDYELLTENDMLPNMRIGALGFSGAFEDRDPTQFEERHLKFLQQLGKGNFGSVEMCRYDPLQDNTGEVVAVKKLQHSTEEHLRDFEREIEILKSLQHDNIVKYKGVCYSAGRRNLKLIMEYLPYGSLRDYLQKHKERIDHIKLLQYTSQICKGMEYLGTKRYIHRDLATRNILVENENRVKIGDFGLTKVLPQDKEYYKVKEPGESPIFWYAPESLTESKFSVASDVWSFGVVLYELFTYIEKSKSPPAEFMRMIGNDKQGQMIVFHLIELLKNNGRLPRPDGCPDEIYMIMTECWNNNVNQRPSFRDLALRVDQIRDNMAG

SMILES | IC50 [1] | IC50 [2]
CC(C)[C@H](C(=O)N1CCC[C@@H]1C#N)N1Cc2c(Cl)cnc3[nH]cc(c23)C1=O [Example 85, (R)-1-((R)-2-(6-chloro-3-oxopyrrolo[4,3,2-de][2,6]naphthyridin-4(1H,3H,5H)-yl)-3-methylbutanoyl)pyrrolidine-2-carbonitrile] | 0.1 µM | 1.58 µM
CC(C)[C@H](C(=O)NCCS(C)(=O)=O)N1Cc2c(F)cnc3[nH]cc(c23)C1=O [Example 46, (R)-2-(6-fluoro-3-oxopyrrolo[4,3,2-de][2,6]naphthyridin-4(1H,3H,5H)-yl)-3-methyl-N-(2-(methylsulfonyl)ethyl)butanamide] | 0.251 µM | 1.58 µM
CC(C)[C@H](C(=O)Nc1ccc(C#N)cc1)N1Cc2c(Cl)cnc3[nH]cc(c23)C1=O [Example 35, (R)-2-(6-chloro-3-oxopyrrolo[4,3,2-de][2,6]naphthyridin-4(1H,3H,5H)-yl)-N-(4-cyanophenyl)-3-methylbutanamide] | 0.316 µM | 2.51 µM
CC[C@H](C(=O)Nc1ccccc1)N1Cc2ccnc3[nH]cc(c23)C1=O [Example 72, (R)-2-(3-oxopyrrolo[4,3,2-de][2,6]naphthyridin-4(1H,3H,5H)-yl)-N-phenylbutanamide] | 0.126 µM | 2 µM
CC(C)[C@H](C(=O)N(C)CC#N)N1Cc2c(F)cnc3[nH]cc(c23)C1=O [Example 79, (R)—N-(cyanomethyl)-2-(6-fluoro-3-oxopyrrolo[4,3,2-de][2,6]naphthyridin-4(1H,3H,5H)-yl)-N,3-dimethylbutanamide] | 0.126 µM | 2.51 µM
CC[C@H](C(=O)NC[C@H](O)CO)N1Cc2ccnc3[nH]cc(c23)C1=O [Example 71, (R)—N—((S)-2,3-dihydroxypropyl)-2-(3-oxopyrrolo[4,3,2-de][2,6]naphthyridin-4(1H,3H,5H)-yl)butanamide] | 0.794 µM | 5.01 µM
CC(C)[C@H](C(=O)N1CC(C#N)C1)N1Cc2c(Cl)cnc3[nH]cc(c23)C1=O [Example 39, (R)-1-(2-(6-chloro-3-oxopyrrolo[4,3,2-de][2,6]naphthyridin-4(1H,3H,5H)-yl)-3-methylbutanoyl)azetidine-3-carbonitrile] | 0.002 µM | 0.0316 µM
CC(C)[C@H](C(=O)N(C)CCC#N)N1Cc2c(F)cnc3[nH]cc(c23)C1=O [Example 43] | 0.794 µM | 12.6 µM
CC[C@H](CC#N)NC(=O)[C@@H](C(C)C)N1Cc2c(Cl)cnc3[nH]cc(c23)C1=O [Example 38, (R)-2-(6-chloro-3-oxopyrrolo[4,3,2-de][2,6]naphthyridin-4(1H,3H,5H)-yl)-N—((R)-1-cyanobutan-2-yl)-3-methylbutanamide] | 0.0316 µM | 1 µM
O=C(NC1CCCC1)[C@@H](C1CCCC1)N1Cc2ccnc3[nH]cc(c23)C1=O [Example 27, (R)—N,2-dicyclopentyl-2-(3-oxopyrrolo[4,3,2-de][2,6]naphthyridin-4(1H,3H,5H)-yl)acetamide] | 0.251 µM | 3.16 µM
Cc1cnc2[nH]cc3c2c1CN([C@@H](C(=O)N1CC(C#N)C1)C(C)(C)C)C3=O [Example 87, (R)-1-(3,3-dimethyl-2-(6-methyl-3-oxopyrrolo[4,3,2-de][2,6]naphthyridin-4(1H,3H,5H)-yl)butanoyl)azetidine-3-carbonitrile] | 0.00316 µM | 0.0501 µM
CC(C)[C@H](C(=O)N1CCS(=O)(=O)CC1)N1Cc2c(F)cnc3[nH]cc(c23)C1=O [Example 48, 4-{(1R)-1-[(1,1-dioxidothiomorpholin-4-yl)carbonyl]-2-methylpropyl}-6-fluoro-4,5-dihydropyrrolo[4,3,2-de][2,6]naphthyridin-3(1H)-one] | 0.251 µM | 5.01 µM

Second part, the compound after the results:

IC50 [1] | IC50 [2] | SMILES
1.58 µM | 12.6 µM | CC[C@H](C)[C@H](C(=O)NC1CCCC1)N1Cc2ccnc3[nH]cc(c23)C1=O [Example 24, (2R,3S)—N-cyclopentyl-3-methyl-2-(3-oxopyrrolo[4,3,2-de][2,6]naphthyridin-4(1H,3H,5H)-yl)pentanamide]
0.316 µM | 3.16 µM | CC[C@H](C(=O)N1CCC(c2ccc(F)cc2)C1)N1Cc2ccnc3[nH]cc(c23)C1=O (stereo partly drawn) [Example 58, 4-((2R)-1-(3-(4-fluorophenyl)pyrrolidin-1-yl)-1-oxobutan-2-yl)-4,5-dihydropyrrolo[4,3,2-de][2,6]naphthyridin-3(1 H)-one]
2 µM | 31.6 µM | CC[C@H](C(=O)N1CCOCC1)N1Cc2ccnc3[nH]cc(c23)C1=O [Example 54, (R)-4-(1-morpholino-1-oxobutan-2-yl)-4,5-dihydropyrrolo[4,3,2-de][2,6]naphthyridin-3(1 H)-one]
20 µM | 20 µM | O=C1c2c[nH]c3nccc(c23)CN1C1(C(=O)NC2CCCC2)CCCC1 [Example 31, N-cyclopentyl-1-(3-oxopyrrolo[4,3,2-de][2,6]naphthyridin-4(1H,3H,5H)-yl)cyclopentanecarboxamide]
3.98 µM | 6.31 µM | O=C1c2ccnc3[nH]cc(c23)CN1C1CCNCC1 [Example 2, 4-(piperidin-4-yl)-3,4-dihydropyrrolo[4,3,2-de][2,6]naphthyridin-5(1H)-one]
0.501 µM | 0.0794 µM | CC1(N2Cc3c[nH]c4nccc(c34)C2=O)CCN(C(=O)CC#N)CC1 [Example 6, 3-(4-methyl-4-(5-oxopyrrolo[4,3,2-de][2,6]naphthyridin-4(1H,3H,5H)-yl)piperidin-1-yl)-3-oxopropanenitrile]
0.631 µM | 6.31 µM | CC[C@H](C(=O)N1CCN(S(C)(=O)=O)CC1)N1Cc2ccnc3[nH]cc(c23)C1=O [Example 63, (R)-4-(1-(4-(methylsulfonyl)piperazin-1-yl)-1-oxobutan-2-yl)-4,5-dihydropyrrolo[4,3,2-de][2,6]naphthyridin-3(1 H)-one]
0.1 µM | 0.0794 µM | CCC(CC)N1Cc2c[nH]c3nccc(c23)C1=O [Example 10, 4-(pentan-3-yl)-3,4-dihydropyrrolo[4,3,2-de][2,6]naphthyridin-5(1H)-one]
2.51 µM | 20 µM | CC[C@H](C(=O)N1CCN(c2ccccn2)CC1)N1Cc2ccnc3[nH]cc(c23)C1=O [Example 64, (R)-4-(1-oxo-1-(4-(pyridin-2-yl)piperazin-1-yl)butan-2-yl)-4,5-dihydropyrrolo[4,3,2-de][2,6]naphthyridin-3(1 H)-one]
0.631 µM | 10 µM | CC[C@H](C(=O)NC(C)CO)N1Cc2ccnc3[nH]cc(c23)C1=O (stereo partly drawn) [Example 69, (2R)—N-(1-hydroxypropan-2-yl)-2-(3-oxopyrrolo[4,3,2-de][2,6]naphthyridin-4(1H,3H,5H)-yl)butanamide]
2 µM | 6.31 µM | CC[C@H](C(=O)NC1CC1)N1Cc2ccnc3[nH]cc(c23)C1=O [Example 65, (R)—N-cyclopropyl-2-(3-oxopyrrolo[4,3,2-de][2,6]naphthyridin-4(1H,3H,5H)-yl)butanamide]
